The series in a line: gradient 5% acetonitrile 3 min, to 50% in 2 min, to 85% in 15 min, held 3 min, 100 µL/min. The note with it: column: Zorbax Extend-C18 2.1 x 50 mm; eluents: water / acetonitrile, 0.1% formic acid. The procedure, abridged: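 The mobile phases were water and acetonitrile, each with 0.1% formic acid, pumped at 100 μL/min through a Zorbax Extend-C18 column (2.1 × 50 mm, 1.8 μm). Pure standards were injected as mixtures of ~100 molecules and detected by a quadrupole time-of-flight mass spectrometer in positive and negative ionization mode. Retention time came from computationally picked adduct peaks, each inspected by hand.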
Compound `O=C(C1CC(=O)N(c2n[nH]c3ccccc23)C1)N1CCN(CCc2ccccn2)CC1` (stereo unspecified) displayed an RP-LC retention time of 551 s.
Compound `Cc1cc(Cl)ccc1NC(=O)N1CCCC1c1nncn1-c1ccccc1` (stereo unspecified) yielded an RP-LC retention time of 724 s.
In turn, `CC(Oc1cccc(Cl)c1)C(=O)N1CCCN(c2cc(=O)n(C)c(=O)n2C)CC1` (stereo unspecified) had an RP-LC retention time of 707 s.
Under `Cn1cccc1C(CNC(=O)Nc1ccc(Cl)c(Cl)c1)N1CCOCC1` (stereo unspecified) stands 601 s.
`Cc1ccc2nc(-c3c(F)cccc3Cl)c(Nc3ccc4c(c3)OCO4)n2c1` yielded an RP-LC retention time of 700 s.
The value for `CCCNC(=O)C1CCCN(c2ccc(SCC(=O)Nc3cccc(C)c3)nn2)C1` (stereo unspecified) was 674 s; that for `CC(C)Cn1c(=O)c2ccccc2n(Cc2nc(-c3ccc(Cl)cc3)no2)c1=O` was 1240 s.
In turn, `CC(=O)Nc1ccc(-c2noc(C3CCN(C(=O)c4ccc5cc[nH]c5c4)CC3)n2)cc1` showed an RP-LC retention time of 737 s.
Consider `O=C(CN1CCN(Cc2ccccc2)C1=O)NC1CCN(Cc2ccccc2)CC1`, for which the RP-LC retention time is 599 s.
As to `CCn1ccc2sc(C)c(C(=O)NCc3ccc(OC)cc3)c2c1=O`, the RP-LC retention time was 786 s.
Under `O=C(c1ccc(-c2cccs2)nc1)N1CCCCCC1` stands 878 s; under `CCc1ccccc1NC(=O)N1CCCC1c1cc(C)on1` (stereo unspecified), 774 s.
`Cc1ccc(NC(=O)C2CCN(c3nnc4ccc(Cl)cn34)CC2)c(F)c1` displayed an RP-LC retention time of 749 s.
Consider `CCc1noc(-c2ccc(-n3cnc(C(=O)NCC(C)C)c3)nc2)n1`, for which the RP-LC retention time worked out at 814 s.
The value for `COc1ccc(-c2noc(C3CCCN3C(=O)c3ccc(C#N)cc3)n2)cc1OC` (stereo unspecified) was 783 s; that for `O=C(NC1CCCCC1)C1CCCN(S(=O)(=O)c2c[nH]c(C(=O)N3CCCCCC3)c2)C1` (stereo unspecified) was 866 s.
Regarding `CCN(CC)c1ncnc2c(-c3ccccc3)cn(CC(=O)N3CCCC3)c12`, the RP-LC retention time came out at 674 s.
The value for `COC1C(=O)N(C2CCN(C(=O)c3sc(C)nc3C)CC2)C12CCOCC2` (stereo unspecified) was 589 s.
Under `COc1ccc(CN2C(=O)CC(c3ccc(OC)c(OC)c3)CC2=O)cc1` stands 879 s; under `Cc1cc(C)n(-c2ccnc(N3CCC(C(=O)N4CCC(C)CC4)CC3)n2)n1`, 920 s.
Under `O=C(c1cccnc1)N1CCN(c2ccccc2Cl)CC1` stands 826 s.
`O=C(Nc1cccc(Cl)c1)Nc1ccc2nc3n(c(=O)c2c1)CCCC3` returned an RP-LC retention time of 723 s.
Under `Cc1ccc(CNC(=O)C2(C)Oc3cccnc3N(C(C)C)C2=O)cc1` (stereo unspecified) stands 982 s.
Under `O=C(CCc1c[nH]c2ccccc12)N1CCn2cnnc2C1` stands 778 s; under `Cc1cc(N2CCCC2)n2nc(CN3CCN(c4cccc(Cl)c4)CC3)nc2n1`, 663 s.
The value for `COc1cccc(NC(=O)N2CCC(c3cc(N)on3)CC2)c1` was 653 s.
For the compound `COCC1CN(Cc2cn[nH]c2-c2ccc(OC)cc2)CCC1(F)F` (stereo unspecified), the RP-LC retention time is 624 s.
`Cc1cccc(C)c1NC(=O)NC1CCN(c2nc3ccccc3n(C)c2=O)CC1` had an RP-LC retention time of 838 s.
The value for `Cc1cc2c(cc3n2CC(C)(C(=O)NC2CCCCC2)N(Cc2cccnc2)C3=O)o1` (stereo unspecified) was 658 s.
Under `CCCC(=O)N1CCCn2nc(-c3cccnc3)cc2C1` stands 577 s; under `Cc1ccc(C2Cn3nnc(-c4nc(-c5ccccc5Br)no4)c3CO2)c(C)c1` (stereo unspecified), 1270 s; under `CCCn1cc(CCNC(=O)Nc2ccc(F)cc2F)c2cccnc21`, 806 s.
`CCc1nc2cc(N3CCC(C(=O)N(CC)CC)CC3)cnc2nc1CC` displayed an RP-LC retention time of 712 s.
Under `Cc1nc(-c2cn(C)c3ncccc23)sc1C(=O)Nc1ccccc1Cl` stands 1090 s.
Under `COc1ccc(CC(=O)Nc2cc(N3CCOCC3)ncn2)cc1OC` stands 582 s; under `COCCNc1nc(-c2ccc([N+](=O)[O-])cc2)nc2ccccc12`, 696 s.
The value for `Cc1ccc(NC(=O)Nc2nccn(-c3ccc(Br)cc3)c2=O)cc1C` was 1100 s; that for `CCCNC(C)C(=O)Nc1c(C)csc1C(=O)OC` (stereo unspecified) was 652 s.
On to `Cc1ccc(NC(=O)Cn2cccc2-c2nnc(C3CCC3)o2)cc1`, for which the RP-LC retention time is 926 s.
Under `CC(C(=O)Nc1ccccc1C(F)(F)F)N1C(=O)c2ccccc2S1(=O)=O` (stereo unspecified) stands 828 s; under `Cc1nnc(CNC(=O)c2cc(-c3ccccc3)nn2C)o1`, 646 s; under `COc1ccc(NC(=O)CSc2nc3c(cc2C#N)C(=O)CC(C)(C)C3)c(OC)c1`, 892 s.
`CCOc1ccc(NC(=O)C2(CC)CCCCC(=O)N2)cc1` (stereo unspecified) came in with an RP-LC retention time of 720 s.
Turning to `O=C(Nc1ccc(N2CCOCC2)cc1)C1CCCN(c2nccnc2Sc2ccccc2)C1` (stereo unspecified), the RP-LC retention time worked out at 945 s.
Compound `COCCNC(=O)C1Cc2cc(C(F)(F)F)ccc2N2CCN(C(=O)c3ccco3)CC12` (stereo unspecified) yielded an RP-LC retention time of 767 s.
The value for `Cc1cc(F)ccc1NC(=O)c1cnn2c1CCCC2` was 720 s; that for `Cn1nc(COc2ccccc2)c2c1CCN(C(=O)Nc1ccccc1Cl)C2` was 889 s; that for `COc1ccccc1OCCC1CCN(S(=O)(=O)Cc2ccccc2)C1` (stereo unspecified) was 692 s.
Under `Cc1ccc(Nc2c(-c3cccc(Br)c3)nc3ccccn23)cc1` stands 778 s; under `Cc1ccc(CNC(=O)C2CCN(S(=O)(=O)c3cc(-c4noc(C)n4)sc3C)CC2)o1`, 906 s; under `Cc1c(C(=O)N2CCN(c3ccc(F)cc3)CC2)sc2nc[nH]c(=O)c12`, 706 s.
Under `COc1ccc(OC)c(NC(=O)C2c3ccccc3C(=O)N3CCc4cc(OC)c(OC)cc4C23)c1` (stereo unspecified) stands 829 s; under `Cc1cc(NC(=O)c2ccccc2)cc(C)c1O`, 705 s; under `O=C1C(OC2CCN(Cc3cc(F)ccc3F)CC2)CCN1C1CCCC1` (stereo unspecified), 641 s.
Compound `COc1ccc(Cc2nc3nccc(-c4cccc(OC)c4)n3n2)cc1` had an RP-LC retention time of 887 s.
The value for `O=C(Nc1ccccc1)C1CCN(C(=O)c2ncn3c2COC(c2ccc(F)cc2)C3)CC1` (stereo unspecified) was 791 s; that for `CC(C)OCCCNC(=O)CCC(=O)N1CC2CCCN2c2ccccc21` (stereo unspecified) was 822 s; that for `CCOc1ccccc1CNc1nccc(-n2nc(C)cc2C)n1` was 894 s.
Under `COc1ccccc1C1(CNC(=O)CSc2ccc(F)cc2)CCOCC1` stands 853 s; under `COc1ccc(NC(=O)c2noc3c2CC(C)CC3)cc1OC` (stereo unspecified), 895 s; under `CCOc1ccc(-n2c(=O)c3sccc3n(Cc3nc(-c4ccccc4Cl)no3)c2=O)cc1`, 1020 s.
Under `CCC(=O)NCCc1csc(C2CCCN(C(=O)C(C)(C)C)C2)n1` (stereo unspecified) stands 685 s.
Compound `O=C(c1ccc(Cl)nc1)c1cccs1` yielded an RP-LC retention time of 897 s.
Regarding `CCn1c(CC2CCN(C(=O)Nc3ccc(C)cc3)C2)nc2cccnc21` (stereo unspecified), the RP-LC retention time stood at 600 s.
Consider `O=C(NCc1ccccc1Cl)c1coc(NC(=O)c2cnccn2)n1`, for which the RP-LC retention time stood at 643 s.
Under `O=C(Cc1cccs1)NCCCN1CCOC(c2ccccc2)C1` (stereo unspecified) stands 556 s.
Regarding `O=C(Nc1ccc2c(c1)OCCO2)C1CCN(S(=O)(=O)c2ccc3[nH]c(=O)ccc3c2)CC1`, the RP-LC retention time was found to be 691 s.
The value for `CC(C)c1ccc(NC(=O)C2(C)CCCCC(=O)N2)cc1` (stereo unspecified) was 786 s.
In turn, `Cc1ccc(Sc2nccnc2N2CCCC(C(=O)NCc3ccc(C)o3)C2)cc1` (stereo unspecified) showed an RP-LC retention time of 1080 s.
The value for `O=C1CC(c2noc(-c3ccccc3Cl)n2)CN1c1ccc(F)cc1` (stereo unspecified) was 964 s; that for `Cc1oc2ncnc(OCC(=O)Nc3ccc(S(N)(=O)=O)cc3)c2c1C` was 738 s.
Under `O=C(c1csc(S(=O)(=O)N2CCC(C(=O)N3CCc4ccccc4C3)CC2)c1)N1CCCC1` stands 817 s.
In turn, `Cc1nn(-c2ccccc2)c(C)c1S(=O)(=O)N1CCC(C(=O)N2CCCc3ccccc32)CC1` had an RP-LC retention time of 1040 s.
`Cc1cc(=O)n(CC(=O)Nc2ccc(F)cc2F)c(-c2ccc(F)cc2)n1` showed an RP-LC retention time of 1050 s.
The value for `Cc1ccc(Oc2nccnc2N2CCCC(C(=O)Nc3ccc(N4CCOCC4)cc3)C2)cc1` (stereo unspecified) was 956 s.
`O=C1CC(c2noc(-c3cccc(F)c3)n2)CN1c1ccccc1` (stereo unspecified) gave an RP-LC retention time of 958 s.
For `CCn1cc(-c2ccc(OC)cc2)cc1C(=O)N(C)C`, the RP-LC retention time turned out to be 842 s.
Compound `O=C(NCc1cccc(Cl)c1)c1cc(C2CC2)n2nccc2n1` had an RP-LC retention time of 974 s.
The value for `CCOc1nccnc1NC1CCN(C(=O)c2ccco2)CC1` was 585 s; that for `Cc1nc(-c2noc(-c3ccncc3)n2)cn1CC(=O)N1CCN(c2ccc(F)cc2)CC1` was 689 s; that for `Cc1cccc(OCc2ccc(-c3nc(C#N)c(NCCCN(C)C)o3)o2)c1` was 728 s.

(Values after the METLIN SMRT retention time set (Domingo-Almenara et al. 2019).)
